Patent US12312292B2, “Long chain alkyl esteramine lipid compound, preparation method therefor and application thereof in nucleic acid delivery” (RinuaGene Biotechnology Co., Ltd., priority 2022, dated 2025)

How the values were obtained:
luciferase mRNA = assay: Detection of reporter gene (luciferase mRNA) expression in mice in vivo; parameters: species or system BALB/c female mice; conditions: LNP-delivered luciferase mRNA, quadriceps muscle injection, IVIS 24 h after injection; dose (5 or 14 μg mRNA) not given
Protocol: The prepared LNP-encapsulated mRNA solution was diluted with PBS buffer to obtain the solution for injection. BALB/c female mice at about 20 g were injected with injection solution at the quadriceps muscle site of mice with an insulin syringe, and each mouse was injected with 50 μL. Two doses were designed: one dose of “5 μg mRNA per 50 μL of injection solution” and the other dose of “14 μg mRNA per 50 μL of injection solution”. BALB/c female mice at about 20 g are injected with PBS buffer at the quadriceps muscle site of mice with an insulin syringe, and each mouse was injected with 50 μL.
After the mice were injected for 24 h, in vivo expression of Luciferase was detected with Perkinelmer's IVIS. The substrate was D-luciferin Sodium salt (GOLDBIO, LUCNA-1G), which was formulated into a concentration of 15 mg/mL with normal saline, filtered and sterilized with a 0.22 μm filter membrane, and stored at −20° C. in aliquots protected from light. Before imaging, each mouse at about 20 g was intraperitoneally injected with 200 μL of substrate solution for 10-20 minutes, and then was anesthetized with isoflurane gas and placed prone on the imaging plate to detect the fluorescence of the animal in vivo, and the results are shown in Table 2.

SD rat = assay: Liver injury toxicity analysis of lipid molecules in SD rat (serum ALT and AST); type: in vivo; conditions: SD rats, 3 mg/kg mRNA encoding Luciferase via tail vein, serum 24 hours after injection; compared with SM102 (FIGS. 4A, 4B)
Source text: In order to further investigate the hepatic injury toxicity of exemplary compounds, we analyze the effect of the compounds of the present invention on serum alanine aminotransferase (ALT) and […] (AST) levels. The experimental 30 SD rats (15 females+15 males, purchased from Zhejiang Weitong Lihua Laboratory Animal Technology Co., Ltd.) were randomly divided into three groups, namely negative control group (PBS), SM102 group, and compound 2 group, each group of […]. According to body weight, each rat was injected with 3 mg/kg of mRNA encoding Luciferase through the tail vein, fasted overnight with supplying water, and whole blood was collected 24 hours after injection, and serum was isolated. The concentration of ALT and AST in the serum of each rat was detected with a fully automated biochemical analyzer, and the test results are shown in FIGS. 4A and 4B.

[1] = In vivo expression distribution analysis of delivered luciferase mRNA (RT-PCR in tissues); parameters: species or system C57BL/6J mice; conditions: delivered luciferase mRNA, single intramuscular injection 50 μg, 2 h-336 h, RT-PCR
Protocol: In order to investigate the distribution features of lipid-delivering mRNA in vivo, we analyzed the distribution features of the reporter luciferase mRNA of the compounds of the present invention in C57BL/6J mice after administration by a single intramuscular injection. The experimental 10 C57BL/6J mice were enrolled, male and female, each administered 50 μg, with SM102 as the control.
Animals in the negative control group were collected at 2 h and 336 h after administration, and animals in the test group were collected at 2 h, 6 h, 24 h, 48 h, 72 h, 120 h, 168 h, and 336 h after administration whole blood, bone marrow, liver, spleen, heart, kidney, inguinal lymph nodes, mesenteric lymph nodes, spleen, brain, stomach, small intestine, non-injection site muscle, injection site muscle tissue, etc. The RNA content in the samples at each time point was detected by RT-PCR, and the lower limit of quantification of the method was […] to reflect the distribution features in C57BL/6J mice.

BALB/c female mice = assay: Acute toxicity analysis of lipid molecules (cationic lipid LNP) in BALB/c female mice; conditions: blood 24 h after injection, Ave(SD)

With `CCCCCCCCCCCOC(=O)CCCCCN(CCCCCCO)CCCCCCCC(=O)OC(CCCCCCCC)CCCCCCCC` [Example 2] the Average fluorescence intensity (luciferase mRNA) was 1.144E+06 P/s/cm^2/sr, the “Elevation effect on serum ALT and AST” value (SD rat) was “significantly lower than these of compound SM102” and the “Exposure in tissues and organs, from high to low” value [1] was “injection site muscle, inguinal lymph nodes, whole blood, spleen, non-injection site muscle, bone marrow, heart, liver, mesenteric lymph nodes, kidney, small intestine and brain”. For the same molecule, the Alanine aminotransferase (BALB/c female mice; high dose group, 150 μg LNP/pc) was 41.54 U/L, the “Alkaline phosphatase (ALP)” value (BALB/c female mice; high dose group, 150 μg LNP/pc) was 111.86 U/L and the Aspartate aminotransferase (BALB/c female mice; high dose group, 150 μg LNP/pc) was 124.48 U/L. The Creatinine (BALB/c female mice; high dose group, 150 μg LNP/pc) was 12.6 µmol/L, the “Total bilirubin (TBIL)” value (BALB/c female mice; high dose group, 150 μg LNP/pc) was 1.25 and the “γ-Glutamyltransferase (GGT)” value (BALB/c female mice; high dose group, 150 μg LNP/pc) was 0.20 (0.18) U/L. For the same molecule, the Alanine aminotransferase (BALB/c female mice; low dose group, 50 μg/pc) was 35.32 (2.51) U/L, the “Alkaline phosphatase (ALP)” value (BALB/c female mice; low dose group, 50 μg/pc) was 113.3 U/L and the Aspartate aminotransferase (BALB/c female mice; low dose group, 50 μg/pc) was 111.74 U/L. For the same molecule, the Creatinine (BALB/c female mice; low dose group, 50 μg/pc) was 12.6 µmol/L, the “Total bilirubin (TBIL)” value (BALB/c female mice; low dose group, 50 μg/pc) was 1.22 (0.20) and the “γ-Glutamyltransferase (GGT)” value (BALB/c female mice; low dose group, 50 μg/pc) was 0.40 (0.37) U/L.
